According to publication PMC6100512, “In-Vitro Activity of Silybin and Related Flavonolignans against Leishmania infantum and L. donovani” (Molecules : A Journal of Synthetic Chemistry and Natural …, 2018):

Columns and labels:
[1] = tested on: BALB/c mouse peritoneal macrophages, Mφ; experiment: Toxicity of flavonolignans for macrophages (CellTiter-Glo); format: cell-based; conditions: Peritoneal macrophage, 24 h, 28.125 to 900 µM, approximate
Description: Toxicity of flavonolignans for mammalian cells was determined using mouse peritoneal Mφ. Cells obtained were counted and seeded onto 96-well cultures plates (Costar, Corning) at a final concentration of 5 × 10^4 Mφ/well (100 µL/well). Plates were incubated overnight at 37 °C and humidified 5% CO2/95% air to facilitate adherence. Cells were cultured as above for 24 h with different concentrations of the flavonolignans (28.125 µM, 56.25 µM, 112.5 µM, 225 µM, 450 µM and 900 µM). After incubation, cell viability was determined with CellTiter-Glo® as previously described. Untreated and 300 µM AmB-treated control wells were included. Experiments were done in triplicate and approximate IC50 determined.

Li UCM9 promastigotes = experiment: Multiplication of Li promastigotes in vitro (CellTiter-Glo, 24 h); format: cell-based, Leishmania infantum; conditions: for inhibition of growth at 120 µM: compared to untreated cultures, mean ± SD, read-out: Reduction (%) of multiplication, L infantum promastigotes; for Emax: read-out: Maximal effect (inhibition of growth of control cultures) on Li promastigotes
Description: (§1) Growth was estimated by the addition of CellTiter-Glo® (Promega, Madison, WI, USA) (1:1) in 96-well microtiter white plates (Costar, Corning). After 10 min incubation (light protected, room temperature), luminescence was determined with FLUOstar Omega (BMG Labtech) reader. Sensitivity of Ld was similarly performed with promastigotes exposed to 120 μM. Control cultures (medium, untreated promastigotes, promastigotes treated with 0.2 μM AmB) were included. Experiment was carried out in triplicate and results expressed as % of inhibition of untreated control. Approximate IC50 values of the flavonolignans showing the highest inhibitory activity against Li mid-log-phase promastigotes were determined using dose-response curves. […] The compound with the highest activity, DhiS-A, was assayed against Ld promastigotes using the latter dilution series and the same culture conditions as above. For comparative purposes, mid-log promastigotes of Li and Ld were exposed to established anti-Leishmania agents: AmB (0.0078 μ[…] and 1.0 μM); […]

[2] = tested on: intracellular amastigotes of Li BCN150; experiment: Activity against intracellular amastigotes ex vivo in mouse peritoneal Mφ; format: cell-based, Leishmania infantum; conditions: 24 h
Description: (§2) Antiproliferative activity of flavonolignans against intracellular amastigotes was determined ex vivo using mouse peritoneal Mφ. Infections were carried out following the method and modifications described by us. Briefly, Mφ were seeded onto 8-well cell culture slides (SLP, Lifesciences Co., Pocheon, Korea) in a final volume of 400 µL (2.5 × 10^4 Mφ/well). Plates were incubated overnight at 37 °C under humidified 5% CO2/95% air atmosphere to facilitate adherence. Stationary-phase promastigotes of Ld and Li were centrifuged (370× g, 10 min) without break in a Ficoll (Sigma, Saint Louis, MO, USA) gradient (0%, 10% in Medium 199 and 30% in sterile phosphate-buffered saline). Metacyclic promastigotes, located in the 10–30% Ficoll interphase, were recovered, washed and opsonized in 15% normal mouse serum in 1:1 solution of RPMI and HBSS medium (Gibco, Life Technologies, Paisley, UK), 0.15 mM CaCl2 and 1 mM MgCl2 at 37 °C, 5% CO2 atmosphere for 30 min. Purified metacyclic promastigotes were added to the Mφ cultures using a ratio 4:1 (promastigotes:Mφ) for Li and 10:1 for Ld. Plates were incubated at 33 °C overnight as above. Noninternalized promastigotes were eliminated by repeated washing with fresh medium. Treatments (10 µM) were added to the cultures and kept for 24 h. Slides were methanol-fixed and stained with May–Grünwald Giemsa (Merck) to determine the % of infection and the number of amastigotes/100 Mφ under microscope. Cultures untreated, treated with 0.05% DMSO and treated with 0.1 µM AmB were included as controls. Experiments were done in triplicate and the activity was expressed as % of inhibition compared to untreated cultures.

Ld promastigotes = experiment: Multiplication of Ld promastigotes in vitro (CellTiter-Glo, 24 h); format: cell-based, L. donovani; conditions: Leishmania donovani; for inhibition of growth at 120 µM: compared to untreated cultures, mean ± SD, read-out: Reduction (%) of multiplication, L. donovani promastigotes
Description: as §1

Li promastigotes = experiment: Drug combination with DhiS-A, Chou-Talalay method (CalcuSyn); format: cell-based, Leishmania infantum; conditions: for DRI of DhiS-A in combination with AmB / Dose Required of DhiS-A in combination with AmB: AmB:DhiS-A 0.01:15; for Dose Required of DhiS-A in combination with AmB / Dose Required of DhiS-A in combination with PMM / Dose Required of DhiS-A in combination with Sb^III: computer-simulated; for DRI of DhiS-A in combination with PMM / Dose Required of DhiS-A in combination with PMM: PMM:DhiS-A 5:1; for DRI of DhiS-A in combination with Sb^III / Dose Required of DhiS-A in combination with Sb^III: Sb^III:DhiS-A 1:1
Description: Fixed-combination ratios of drugs were based on the IC50 values determined for the individual molecules. Mid-log-phase promastigotes of Li were exposed for 24 h at constant ratios of 0.01:15 (AmB:DhiS-A), 1:1 (Sb^III:DhiS-A) and 5:1 (PMM:DhiS-A). Dose–response curves of the combinations were analyzed with the Chou–Talalay method, based on the theorem of combination index (CI)-isobologram and CalcuSyn software. This method allows the evaluation of the type of interaction between two molecules according to mass action law. Results can be used to determine quantitatively the synergy (CI < 1), additive effect (CI = 1) or antagonism (CI > 1) of combinations. Moreover, the program allows the calculation of the drug reduction index (DRI): dose reduction in drug combinations to reach a given inhibition compared to the activity of the individual drugs.

[3] = tested on: intracellular amastigotes of Ld; experiment: Activity against intracellular amastigotes ex vivo in mouse peritoneal Mφ; format: cell-based, L. donovani; conditions: 24 h
Description: as §2, with “Slides were methanol-fixed and stained with May–Grünwald Giemsa (Merck) to determine the % of infection and the number of amastigotes/100 Mφ under microscope. Cultures untreated, treated with 0.05% DMSO and treated with 0.1 µM AmB were included as controls.” left out

amastigotes of L. major = tested on: amastigotes of L. major; parameters: method as in PMID 29716183; conditions: cited from earlier work
L. major promastigotes = tested on: L. major promastigotes; parameters: method as in PMID 29716183; conditions: 12.5 µM; cited from earlier work
[4] = Leishmania infantum, exploratory screening, 0.94 µM up to 120 µM

COc1cc([C@H]2Oc3ccc(-c4oc5cc(O)cc(O)c5c(=O)c4O)cc3O[C@@H]2CO)ccc1O [Dehydroisosilybin A, dehydroisosilybin A]
IC50 [1]: ~30 µM | inhibition of growth at 120 µM (Li UCM9 promastigotes; Leishmania infantum, 24 h): 38.3 ± 4.96% | IC50 (Li UCM9 promastigotes; Leishmania infantum, approximate, dose-response curve, 24 h): ~90.2 µM | Emax (Li UCM9 promastigotes; [4]): < 50% | Inhibition of Li promastigote multiplication reached in dose-response curve (Li UCM9 promastigotes; maximal concentration used 480/600 µM): complete inhibition | Antileishmanial activity on intracellular amastigotes (in words) ([2]; 10 µM): ineffective against amastigotes | Intracellular burdens (amastigotes/100 Mφ) after treatment, Li ([2]; 10 µM): did not show any reduction | Antileishmanial activity on intracellular amastigotes (in words) ([2]; 10 µM, listed as DhiS-A): did not show any antiproliferative activity | Mφ infection (%), Li ([2]; treated with 10 µM, nontreated 50.67 ± 4.62%): 45.67 ± 7.51% | inhibition of growth at 120 µM (Ld promastigotes): 87.6 ± 2.82% | IC50 (Ld promastigotes; approximate, dose-response curve): ~90.2 µM | DRI of DhiS-A in combination with AmB (Li promastigotes; ED10): 0.88 | Dose Required of DhiS-A in combination with AmB (Li promastigotes; ED10): 34.79 µM | DRI of DhiS-A in combination with AmB (Li promastigotes; ED25): 1.13 | Dose Required of DhiS-A in combination with AmB (Li promastigotes; ED25): 44.61 µM | DRI of DhiS-A in combination with AmB (Li promastigotes; ED50): 1.47 | Dose Required of DhiS-A in combination with AmB (Li promastigotes; ED50): 57.21 µM | DRI of DhiS-A in combination with PMM (Li promastigotes; ED50): 0.51 | Dose Required of DhiS-A in combination with PMM (Li promastigotes; ED50): 164 µM | DRI of DhiS-A in combination with Sb^III (Li promastigotes; ED50): 1.50 | Dose Required of DhiS-A in combination with Sb^III (Li promastigotes; ED50): 56 µM | DRI of DhiS-A in combination with AmB (Li promastigotes; ED75): 1.90 | Dose Required of DhiS-A in combination with AmB (Li promastigotes; ED75): 73.36 µM | DRI of DhiS-A in combination with PMM (Li promastigotes; ED75): 0.60 | Dose Required of DhiS-A in combination with PMM (Li promastigotes; ED75): 229 µM | DRI of DhiS-A in combination with Sb^III (Li promastigotes; ED75): 0.99 | Dose Required of DhiS-A in combination with Sb^III (Li promastigotes; ED75): 141.12 µM | DRI of DhiS-A in combination with AmB (Li promastigotes; ED90): 2.91 | Dose Required of DhiS-A in combination with AmB (Li promastigotes; ED90): 94.08 µM | DRI of DhiS-A in combination with PMM (Li promastigotes; ED90): 0.72 | Dose Required of DhiS-A in combination with PMM (Li promastigotes; ED90): 318 µM | DRI of DhiS-A in combination with Sb^III (Li promastigotes; ED90): 0.65 | Dose Required of DhiS-A in combination with Sb^III (Li promastigotes; ED90): 355.63 µM | DRI of DhiS-A in combination with AmB (Li promastigotes; ED95): 4.28 | Dose Required of DhiS-A in combination with AmB (Li promastigotes; ED95): 111.42 µM | DRI of DhiS-A in combination with PMM (Li promastigotes; ED95): 0.81 | Dose Required of DhiS-A in combination with PMM (Li promastigotes; ED95): 399 µM | DRI of DhiS-A in combination with Sb^III (Li promastigotes; ED95): 0.49 | Dose Required of DhiS-A in combination with Sb^III (Li promastigotes; ED95): 666.84 µM | Intracellular burdens (amastigotes/100 Mφ) after treatment, Ld ([3]; 10 µM): did not show any reduction | Mφ infection (%), Ld ([3]; treated with 10 µM, nontreated 69.67 ± 8.50%): 67.0 ± 6.08%

COc1cc([C@H]2Oc3cc(-c4oc5cc(O)cc(O)c5c(=O)c4O)ccc3O[C@@H]2CO)ccc1O [Dehydrosilybin A, dehydrosilybin A]
IC50 [1]: ~60 µM | inhibition of growth at 120 µM (Li UCM9 promastigotes; Leishmania infantum, 24 h): 10.2 ± 6.97% | Reduction of Mφ infection, Li ([2]; 10 µM): 40.13 ± 12.6% | Reduction of intracellular amastigotes, Li ([2]; 10 µM): over 50% | inhibition of growth at 120 µM (Ld promastigotes): -38.7 ± 5.41%

COc1cc([C@@H]2Oc3c(O)cc(-c4oc5cc(O)cc(O)c5c(=O)c4O)cc3[C@H]2CO)ccc1O [Dehydrosilychristin A, dehydrosilychristin A]
IC50 [1]: ~40 µM | inhibition of growth at 120 µM (Li UCM9 promastigotes; Leishmania infantum, 24 h): 30.6 ± 3.33% | Emax (Li UCM9 promastigotes; [4]): < 50% | inhibition of growth at 120 µM (Ld promastigotes): 46.7 ± 1.24%

COc1cc(C2Oc3cc([C@H]4Oc5cc(O)cc(O)c5C(=O)[C@@H]4O)ccc3OC2CO)ccc1O (stereo partly drawn) [Silybin AB, silybin AB]
inhibition of growth at 120 µM (Li UCM9 promastigotes; Leishmania infantum, 24 h): 5.4 ± 2.02% | Inhibition on Li promastigotes (in words) (Li UCM9 promastigotes; exploratory screening, 0.94 µM up to 120 µM): neither silymarin nor the main component, silybin, elicited any inhibition | Antileishmanial activity on intracellular amastigotes (in words) ([2]; 10 µM): no antileishmanial activity was found | inhibition of growth at 120 µM (Ld promastigotes): 37 ± 3.91% | Inhibition of the multiplication of amastigotes of L. major (amastigotes of L. major): 53%

antimoniate of N-methyl glucamine [Sb^V, reference compound]
Reduction of the multiplication of L. major promastigotes (L. major promastigotes): ca. 70% | Sensitivity of Li promastigotes (in words) (Li UCM9 promastigotes; dose-response 3.75-480 µM): insensitive
